# According to the supplement of paper PMC6045584:
# Experiments:
# Test in all cases: area under dose-response curve of surviving fraction (unscaled, Aref=0) (surviving fraction x log10(nM)); higher = more resistant
# Details in all cases: exposure time: 5 days; dose range 0.5-1000 nM
# AFIMOXIFENE = compound: CC/C(=C(\c1ccc(O)cc1)c1ccc(OCCN(C)C)cc1)c1ccccc1 [AFIMOXIFENE]
# Procedure, shortened: (§1)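 Three screens per tumour cell line were run in 384-well plates at eight inhibitor concentrations from 0.5 to 1000 nM over five days. Surviving fractions, from CellTiter-Glo luminescence normalised to DMSO-only wells, were fitted with 3-parameter logistic curves in the drc R package. The reported area under the curve is the unscaled activity area. It spans log10 dose, and Aref is 0.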
# NILOTINIB = compound: Cc1cn(-c2cc(NC(=O)c3ccc(C)c(Nc4nccc(-c5cccnc5)n4)c3)cc(C(F)(F)F)c2)cn1 [NILOTINIB]
# Procedure, shortened: as §1
# IMATINIB = compound: Cc1ccc(NC(=O)c2ccc(CN3CCN(C)CC3)cc2)cc1Nc1nccc(-c2cccnc2)n1 [IMATINIB]
# Procedure, shortened: as §1
# MK-1775 = compound: C=CCn1c(=O)c2cnc(Nc3ccc(N4CCN(C)CC4)cc3)nc2n1-c1cccc(C(C)(C)O)n1 [MK-1775]
# Procedure, shortened: as §1
# BLEOMYCIN = compound: Cc1c(N)nc([C@H](CC(N)=O)NC[C@H](N)C(N)=O)nc1C(=O)N[C@H](C(=O)N[C@H](C)[C@@H](O)[C@H](C)C(=O)N[C@H](C(=O)NCCc1nc(-c2nc(C(=O)NCCC[S+](C)C)cs2)cs1)[C@@H](C)O)[C@@H](OC1OC(CO)C(O)C(O)C1OC1OC(CO)C(O)C(OC(N)=O)C1O)c1cnc[nH]1 [BLEOMYCIN]
# Procedure, shortened: as §1
# [1] = compound: CCc1cc(Nc2nccc(-c3c(-c4ccc(OC)c(C(=O)Nc5c(F)cccc5F)c4)nc4ccccn34)n2)c(OC)cc1N1CCC(N2CCN(S(C)(=O)=O)CC2)CC1
# Procedure, shortened: as §1
# VORINOSTAT = compound: O=C(CCCCCCC(=O)Nc1ccccc1)NO [VORINOSTAT]
# Procedure, shortened: as §1
# BMN-673 = compound: Cn1ncnc1[C@H]1c2n[nH]c(=O)c3cc(F)cc(c23)N[C@@H]1c1ccc(F)cc1 [BMN-673]
# Procedure, shortened: as §1
# CABOZANTINIB = compound: COc1cc2nccc(Oc3ccc(NC(=O)C4(C(=O)Nc5ccc(F)cc5)CC4)cc3)c2cc1OC [CABOZANTINIB]
# Procedure, shortened: as §1
# [2] = compound: C[C@H](CN(C)C)Oc1nc(Nc2cc3cccc(Cl)c3cn2)cnc1C#N
# Procedure, shortened: as §1
# [3] = compound: COc1ccc(-c2cc3c(C)nc(N)nc3n([C@H]3CC[C@H](OCCO)CC3)c2=O)cn1
# Procedure, shortened: as §1
# BEZ-235 = compound: Cn1c(=O)n(-c2ccc(C(C)(C)C#N)cc2)c2c3cc(-c4cnc5ccccc5c4)ccc3ncc21 [BEZ-235]
# Procedure, shortened: as §1
test system,measurement,setting,value
HS57T LUNG,area under dose-response curve,AFIMOXIFENE,3.68
same,area under dose-response curve,NILOTINIB,3.38
same,area under dose-response curve,IMATINIB,3.57
same,area under dose-response curve,MK-1775,2.19
same,area under dose-response curve,BLEOMYCIN,2.57
same,area under dose-response curve,[1],3.36
same,area under dose-response curve,VORINOSTAT,3.16
same,area under dose-response curve,BMN-673,2.92
same,area under dose-response curve,CABOZANTINIB,3.09
same,area under dose-response curve,[2],2.65
same,area under dose-response curve,[3],2.21
same,area under dose-response curve,BEZ-235,1.94
